According to patent US8030042B2, “Polyamino acid synthetase and gene encoding the same” (JNC Corporation, priority 2007, dated 2011):
Converted amounts (≈) assume the structure as drawn.

B1: ε-poly-L-lysine biosynthetic enzyme: membrane-bound ε-poly-L-lysine biosynthetic enzyme (NRPS) from Streptomyces albulus strain IFO14147, amino acid sequence SEQ ID NO: 2 (protein, listed as Streptomyces albulus)
chain: MSSPLLESSFEPSEPAPQQALYRTAGNPAPRTLLDVLDATAAAHPQAIALDTGSEALTYRDLCIEIERRARQLRDRGIGPGDRVGVRVPSGTAELYLSILAVLRSGAAYVPVDADDPDERAATVFREAAVCAVLGPDGPLPGPARPLGDPRSAGPQDDAWIIFTSGSTGAPKGVAVSHRSAAAFVDAEADLFCQDQPLGPGDRVLAGLSVAFDASCEEMWLAWRYGACLVPAPRALVRAGHELGPWLVERGITVVSTVPTLAALWPDEAMRRVRLLIVGGESCPAGLVDRFAGPGREMWNTYGPTETTVVACAARLLPGEPVRIGLPLKGWQLAVVDRTGQPVPFGAEGELLISGVGTARYLDPAKDAERFRPDDALGAARVYRTGDLVRAEPEGLLFVGRADDQIKLGGRRIELGEIDAALAALPGVRGAAAAVQTTPAGTQVLVGYVVPEQRTADGSSFQQDKARALLQERLPAQLVPVLAEVESLPTRTSGKVDRKALPWPLPSAPVDSATGDPATALDGTAARLAGIWEELLGVRPGPDSDFVSLGGTSLVAARMASQLRIHHPGVSVADLYRHPVLRDMAEHLDSLGGPVDEVRPVRPVPRRTGFVQLLVQTGLYGIAGLRGLVGLALADNVLGLLAPQVWAPHTAWWLIIVGWVVLYSAPMRCALGALAARALAGTIKPGAYPRGGATHLRLWTAERVVAAFGVPSLLGTPWTRLYARSLGCATGRNVALHTMPPVTGLAELGDGCSVEPEADISGWWLDGDTLHIGAVRIGAGARVAHRSMLMPGAVVGQGAELASGACLDGEIPDGASWSGSPARPAGAAERMAGAAWPAPAWQRSRRWSAAYGLTLLGLSLLALLSTAPALVGAYFLLRDSGTLATAGLRLLLAVPVFTLLTTGCSLLVTAAVVRLLGRGITPGLHPASGGVAWRAWLVTRLLDGARGSLFPLYASLGTPHWLRLLGAKVGRHAEISTVLPLPSLLHVEDGAFLADDTLVAPFELRGGWLRLGTVRIGRRAFVGNSGIVDPGHDVPDHSLVGVLSNAPADGEPGSSWLGRPAMPLPRVATQADPARTFAPPRRLVRARAAVELCRVLPLMCGLALAEGVFLTEQDAFAQGGLGLAALVGAPLLLASGLVALLVTTLAKWLLVGRFTVSEHPLWSSFVWRNELYDTFVESLAVPSMAGAFTGTPVLNWWLRTLGAKIGRGVWLESYWLPETDLITVADGVSVNRGCVLQTHLFHDRIMRLDTVRLAEGSSLGPHGIVLPGTEVGARASIAPSSLVMRGESVPAHTRWAGNPIAGERPARPVPARAEGGAAA

Tested on: ε-poly-L-lysine biosynthetic enzyme
Assay: ε-poly-L-lysine biosynthesis activity (L-[U-14C]lysine taken into ε-poly-L-lysine)
Assay type: biochemical, Streptomyces albulus strain IFO14147
Conditions: 5 mM Mg^2+, 5 mM Mn^2+; no concentration given for Ca^2+
Description: The measurement of the ε-poly-L-lysine biosynthesis activity was performed according to the method of Kawai et al. (Biochem Biophys Res Commun. 2003 Nov. 21; 311 (3): 635-40) with some modification. A reaction solution (40 μl), which includes: 1 mM L-lysine containing 92.5 kBq/ml L-[U-14C]lysine (Amersham Biosciences); 5 mM MgCl2; 5 mM ATP; 1 mM DTT; 20% (w/v) glycerol; 0.2% (w/v) NP-40; 100 mM TAPS-NaOH buffer solution (pH 8.5); and the enzyme, was incubated at 30° C. 10 μl of the reaction solution was spotted on a glass fiber filter paper having the diameter of 2.1 cm (Whatman), and it was immediately immersed in an ice-cold sodium solution of 5% (w/v) trichloroacetic acid-0.25% (w/v) tungstic acid. It was allowed to stand for 20 minutes and thereafter mildly shaken for 5 minutes. After the filter was shaken again in the same solution for 5 minutes, it was rinsed with ethanol and then dried. The amount of radioactivity bound to the filter was measured using a liquid scintillation counter (Aloka). The amount of enzyme by which 1 pmol/second of L-lysine is taken into ε-poly-L-lysine under the above-described reaction conditions was defined as 1 unit. Specific activity of a protein is represented by unit per 1 mg of the protein. Quantitation of protein was performed using the Bradford method. A calibration curve was made using bovine serum albumin (Wako Pure Chemical Industries, Ltd.).

Row | Molecule | Metal ion requirement: enzyme activity on addition of divalent cation
1 | [Ca+2] [Ca^2+] | activated slightly
2 | [Mn+2] [Mn^2+] | maximal activity
3 | [Mg+2] [Mg^2+] | maximal activity

Same assay, conditions: purified enzyme preparation

Row | Molecule | Optimum pH of synthesis reaction
4 | B1 | 8.5

Tested on: ε-poly-L-lysine biosynthetic enzyme
Assay: adenylation activity of L-lysine and other amino acids by ATP-PPi exchange reaction
Assay type: biochemical, Streptomyces albulus strain IFO14147
Conditions: 1 mM amino acid; "None" = was not adenylated
Description: The adenylation activity of L-lysine and other amino acids was measured by ATP-PPi exchange reaction. A reaction solution (40 μl), which includes: 1 mM L-lysine or another amino acid; 5 mM MgCl2; 5 mM. ATP; 1 mM DTT; 20% (w/v) glycerol; 0.2% (w/v) NP-40; 0.2 mM sodium diphosphate; 51.8 kBq/ml [32P] sodium diphosphate; 100 mM TAPS-NaOH buffer solution (pH 8.5); and the enzyme, was incubated at 30° C. 1.0 ml of a solution containing 1.2% (w/v) active carbon, 0.1 M sodium diphosphate and 0.35 M perchloric acid was added thereto to terminate the reaction. After the active carbon was washed with pure water, the amount of radioactivity bound to the active carbon was measured using a liquid scintillation counter (Aloka).

Row | Molecule | Substrate specificity: adenylated by the enzyme or not
5 | N[C@@H](Cc1c[nH]cn1)C(=O)O [L-His] | None
6 | CC(C)C[C@H](N)C(=O)O [L-Leu] | None
7 | NCCCC[C@@H](N)C(=O)O [D-lysine] | adenylated
8 | N[C@@H](Cc1c[nH]c2ccccc12)C(=O)O [L-Trp] | None
9 | C[C@@H](O)[C@H](N)C(=O)O [L-Thr, L-threonine] | None
10 | CSCC[C@H](N)C(=O)O [L-Met] | None
11 | N=C(N)NCCC[C@H](N)C(=O)O [L-Arg] | None
12 | CC(C)[C@H](N)C(=O)O [L-Val] | None
13 | N[C@@H](CCC(=O)O)C(=O)O [L-Glu] | None
14 | N[C@@H](CS)C(=O)O [L-Cys] | None
15 | NCCOC[C@H](N)C(=O)O [O-(2-aminoethyl)-L-serine] | adenylated
16 | N[C@@H](Cc1ccc(O)cc1)C(=O)O [L-Tyr] | None
17 | CC[C@H](C)[C@H](N)C(=O)O [L-Ile] | None
18 | O=C(O)[C@@H]1CCCN1 [L-Pro] | None
19 | NC(=O)CC[C@H](N)C(=O)O [L-Gln] | None
20 | N[C@@H](CO)C(=O)O [L-Ser] | None
21 | NC(=O)C[C@H](N)C(=O)O [L-Asn] | None
22 | NCCSC[C@H](N)C(=O)O [S-(2-aminoethyl)-L-cysteine] | adenylated
23 | N[C@@H](CC(=O)O)C(=O)O [L-Asp] | None
24 | C[C@H](N)C(=O)O [L-Ala] | None
25 | NCC(=O)O [Gly] | None
26 | NCC(O)CCC(N)C(=O)O (racemic) [DL-5-hydroxylysine] | adenylated
27 | N[C@@H](Cc1ccccc1)C(=O)O [L-Phe] | None

Same assay, conditions: activity to L-lysine regarded as 100%; FIG. 8

Row | Molecule | Relative activity in amino acid activation (adenylation) reaction [%]
28 | NCCCC[C@H](N)C(=O)O [L-lysine] | 100

Tested on: ε-poly-L-lysine biosynthetic enzyme
Assay: Enzymatic production of heteropolyamino acid from lysine analog and L-lysine (ESI-LC-MS)
Assay type: biochemical, Streptomyces albulus strain IFO14147
Conditions: 2 mM substrate, L-lysine and analog mixed; 25° C., 4 hours; FIG. 9
Description: A reaction solution (200 μl) containing 2 mM substrate amino acid (L-lysine and analog were mixed in a given ratio), 5 mM MgCl2, 5 mM ATP, 1 mM DTT, 20% glycerol, 0.2% (w/v) NP-40, 100 mM TAPS-NaOH buffer solution (pH 8.5) and about 10 μg of the purified enzyme preparation was put into a 1.5 ml microtube, and it was incubated at 25° C. 4 hours later, polyamino acid produced in a manner similar to that in Example 1 was subjected to ESI-LC-MS analysis.

Row | Molecule | Analog taken into the polylysine molecule by the enzyme (heteropolyamino acid)
29 | NCCOC[C@H](N)C(=O)O [O-(2-aminoethyl)-L-serine] | taken into the polylysine molecule
30 | NCCSC[C@H](N)C(=O)O [S-(2-aminoethyl)-L-cysteine] | taken into the polylysine molecule
31 | NCC(O)CCC(N)C(=O)O (racemic) [DL-5-hydroxylysine] | taken into the polylysine molecule

Tested on: Streptomyces albulus
Assay: minimum growth inhibitory concentration against the bacterium in a M9 minimum medium
Assay type: cell-based
Conditions: i.e. minimum concentration to inhibit aspartokinase

Row | Molecule | MIC [mM]
32 | C[C@@H](O)[C@H](N)C(=O)O [L-Thr, L-threonine] | 16 (≈ 1910 µg/mL)
33 | NCCSC[C@H](N)C(=O)O [S-(2-aminoethyl)-L-cysteine] | 8 (≈ 1310 µg/mL)

Tested on: Streptomyces albulus
Assay: Microbial production of heteropolyamino acid by viable bacterium (LC-MS)
Assay type: cell-based
Conditions: 8 mM analog, 16 mM L-threonine, L-lysine; pH 4.2, 30° C., 48 hours; FIG. 10
Description: A bacterium of Streptomyces albulus, which was obtained by culturing in a M3G medium (Example 1) at 30° C. for 36 hours, was washed with 100 mM citrate buffer solution (pH 4.2) twice. The washed bacterium obtained from 100 ml of culture solution was suspended in a reaction solution for bacterium consisting of 50 ml of 5% glucose, 1% ammonium sulfate, 8 mM S-(2-aminoethyl)-L-cysteine, 16 mM L-threonine (the concentration of each of the amino acids corresponds to a minimum growth inhibitory concentration against the bacterium in a M9 minimum medium, i.e., a minimum concentration to inhibit aspartokinase which is the key enzyme for L-lysine biosynthesis), and 100 mM citrate buffer solution (pH 4.2) containing a given amount of L-lysine, and it was subjected to shaking culture at 30° C. for 48 hours. After the completion of culture, polyamino acid contained in the culture supernatant collected by centrifugation was subjected to LC-MS analysis using the method of Example 1 (paragraph [0091]).

Row | Molecule | Analog taken into the polylysine molecule by viable bacterium (heteropolyamino acid)
34 | NCCSC[C@H](N)C(=O)O [S-(2-aminoethyl)-L-cysteine] | taken into the polylysine molecule

Tested on: ε-poly-L-lysine biosynthetic enzyme
Assay: adenylation activity of L-lysine and other amino acids by ATP-PPi exchange reaction
Assay type: biochemical, Streptomyces albulus strain IFO14147
Conditions: nucleotide in place of ATP

Row | Molecule | Nucleotide specificity: activation of substrate amino acids
35 | O=c1ccn([C@@H]2O[C@H](COP(=O)(O)OP(=O)(O)OP(=O)(O)O)[C@@H](O)[C@H]2O)c(=O)[nH]1 [UTP] | not activated
36 | Nc1nc2c(ncn2[C@@H]2O[C@H](COP(=O)(O)OP(=O)(O)OP(=O)(O)O)[C@@H](O)[C@H]2O)c(=O)[nH]1 [GTP] | not activated
37 | Nc1ncnc2c1ncn2[C@@H]1O[C@H](COP(=O)(O)OP(=O)(O)OP(=O)(O)O)[C@@H](O)[C@H]1O [ATP] | ATP-specific
38 | Nc1ccn([C@@H]2O[C@H](COP(=O)(O)OP(=O)(O)OP(=O)(O)O)[C@@H](O)[C@H]2O)c(=O)n1 [CTP] | not activated
